Target: T1, B1R receptor of the rat (CHO K1 cells stably transfected with the B1R gene of the rat) (Rattus norvegicus, UniProt P97583)
T1 construct: expressed in transfected cells; host or cells: CHO K1 cells (Chinese hamster ovary), stably transfected
T1 sequence (P97583 1-337): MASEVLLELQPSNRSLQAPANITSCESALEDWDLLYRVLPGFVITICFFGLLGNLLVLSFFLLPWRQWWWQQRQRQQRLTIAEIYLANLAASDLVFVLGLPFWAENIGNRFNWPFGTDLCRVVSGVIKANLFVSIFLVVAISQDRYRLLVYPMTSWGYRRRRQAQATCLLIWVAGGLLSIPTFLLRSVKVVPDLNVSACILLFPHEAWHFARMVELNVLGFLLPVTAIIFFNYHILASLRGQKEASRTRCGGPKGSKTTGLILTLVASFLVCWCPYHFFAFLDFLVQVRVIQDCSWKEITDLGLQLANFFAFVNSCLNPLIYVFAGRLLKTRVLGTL
Assay: Functional study on the bradykinin receptor 1 (B1R), Ca2+ fluorescence (Fluo-4) FLIPR/Novostar assay, rB1R cells
Assay type: cell-based
Settings: CHO-K1, 10 μM, read-out: % Inhibition (r-B1R) at 10 μM
Method in brief: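 Stably transfected CHO K1 cells carrying human or rat B1R were Fluo-4 loaded and Ca2+ fluorescence read by FLIPR or Novostar. Compounds were added first at 10 μM for % activation, then the EC80 agonist was applied after 6-20 min (human: Lys-Des-Arg9-bradykinin; rat: Des-Arg9-bradykinin). % inhibition is relative to maximum achievable inhibition, and IC50 comes from concentration series.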

| Compound | inhibition at 10 µM |
| --- | --- |
| COCC(=O)NC1CCc2ccc(C(=O)N(C)C3CCN(c4cc(C)nc(C)c4)CC3)cc21 (stereo not drawn) [CC_H-300, N-[1-(2,6-Dimethyl-pyridin-4-yl)-piperidin-4-yl]-3-[(2-methoxy-acetyl)amino]-N-methyl-2,3-dihydro-1H-indene-5-carboxylic acid amide] | 103% |
| Cc1cc(N2CCC(N(C)C(=O)c3ccc4c(c3)C(NS(=O)(=O)Cc3ccccc3C(F)(F)F)CC4)CC2)cc(C)n1 (stereo not drawn) [CC_H-302, N-[1-(2,6-Dimethyl-pyridin-4-yl)-piperidin-4-yl]-N-methyl-3-[[[2-(trifluoromethyl)-phenyl]-methylsulfonyl]amino]-2,3-dihydro-1H-indene-5-carboxylic acid amide] | 112% |
| Cc1cc(N2CCC(N(C)C(=O)c3ccc4c(c3)C(NC(=O)c3cccc(C(F)(F)F)c3Cl)CC4)CC2)cc(C)n1 (stereo not drawn) [CC_H-303, 3-[[2-Chloro-3-(trifluoromethyl)-benzoyl]amino]-N-[1-(2,6-dimethyl-pyridin-4-yl)-piperidin-4-yl]-N-methyl-2,3-dihydro-1H-indene-5-carboxylic acid amide] | 112% |
| Cc1cc(N2CCC(N(C)C(=O)c3ccc4c(c3)C(NC(=O)Nc3ccccc3Cl)CC4)CC2)cc(C)n1 (stereo not drawn) [CC_H-304, 3-[[(2-Chlorophenyl)-carbamoyl]amino]-N-[1-(2,6-dimethyl-pyridin-4-yl)-piperidin-4-yl]-N-methyl-2,3-dihydro-1H-indene-5-carboxylic acid amide] | 98% |
| Cc1cc(N2CCC(N(C)C(=O)c3ccc4c(c3)C(NC(=O)Nc3cccc(Cl)c3)CC4)CC2)cc(C)n1 (stereo not drawn) [CC_H-305, 3-[[(3-Chlorophenyl)-carbamoyl]amino]-N-[1-(2,6-dimethyl-pyridin-4-yl)-piperidin-4-yl]-N-methyl-2,3-dihydro-1H-indene-5-carboxylic acid amide] | 109% |
| Cc1cc(N2CCC(N(C)C(=O)c3ccc4c(c3)C(NC(=O)Nc3c(Cl)cccc3Cl)CC4)CC2)cc(C)n1 (stereo not drawn) [CC_H-306, 3-[[(2,6-Dichloro-phenyl)-carbamoyl]amino]-N-[1-(2,6-dimethyl-pyridin-4-yl)-piperidin-4-yl]-N-methyl-2,3-dihydro-1H-indene-5-carboxylic acid amide] | 107% |
| Cc1cc(N2CCC(N(C)C(=O)c3ccc4c(c3)C(NC(=O)Nc3cccc(Cl)c3Cl)CC4)CC2)cc(C)n1 (stereo not drawn) [CC_H-307, 3-[[(2,3-Dichloro-phenyl)-carbamoyl]amino]-N-[1-(2,6-dimethyl-pyridin-4-yl)-piperidin-4-yl]-N-methyl-2,3-dihydro-1H-indene-5-carboxylic acid amide] | 91% |
| Cc1cc(N2CCC(N(C)C(=O)c3ccc4c(c3)C(NC(=O)Nc3cc(Cl)ccc3Cl)CC4)CC2)cc(C)n1 (stereo not drawn) [CC_H-308, 3-[[(2,5-Dichloro-phenyl)-carbamoyl]amino]-N-[1-(2,6-dimethyl-pyridin-4-yl)-piperidin-4-yl]-N-methyl-2,3-dihydro-1H-indene-5-carboxylic acid amide] | 96% |
| Cc1cc(N2CCC(N(C)C(=O)c3ccc4c(c3)C(NC(=O)Nc3ccc(Cl)cc3Cl)CC4)CC2)cc(C)n1 (stereo not drawn) [CC_H-310, 3-[[(2,4-Dichlorophenyl)-carbamoyl]amino]-N-[1-(2,6-dimethyl-pyridin-4-yl)-piperidin-4-yl]-N-methyl-2,3-dihydro-1H-indene-5-carboxylic acid amide] | 101% |
| Cc1cc(N2CCC(N(C)C(=O)c3ccc4c(c3)C(NC(=O)Nc3cc(C(F)(F)F)ccc3Cl)CC4)CC2)cc(C)n1 (stereo not drawn) [CC_H-311, 3-[[[2-Chloro-5-(trifluoromethyl)-phenyl]-carbamoyl]amino]-N-[1-(2,6-dimethyl-pyridin-4-yl)-piperidin-4-yl]-N-methyl-2,3-dihydro-1H-indene-5-carboxylic acid amide] | 80% |
| Cc1cc(N2CCC(N(C)C(=O)c3ccc4c(c3)C(NC(=O)Nc3ccc(Cl)cc3C(F)(F)F)CC4)CC2)cc(C)n1 (stereo not drawn) [CC_H-312, 3-[[[4-Chloro-2-(trifluoromethyl)-phenyl]-carbamoyl]amino]-N-[1-(2,6-dimethyl-pyridin-4-yl)-piperidin-4-yl]-N-methyl-2,3-dihydro-1H-indene-5-carboxylic acid amide] | 92% |
| Cc1cc(N2CCC(N(C)C(=O)c3ccc4c(c3)C(NC(=O)Nc3ccc(F)c(Cl)c3)CC4)CC2)cc(C)n1 (stereo not drawn) [CC_H-314, 3-[[(3-Chloro-4-fluoro-phenyl)-carbamoyl]amino]-N-[1-(2,6-dimethyl-pyridin-4-yl)-piperidin-4-yl]-N-methyl-2,3-dihydro-1H-indene-5-carboxylic acid amide] | 81% |
| COc1ccc(Cl)cc1NC(=O)NC1CCc2ccc(C(=O)N(C)C3CCN(c4cc(C)nc(C)c4)CC3)cc21 (stereo not drawn) [CC_H-315, 3-[[(5-Chloro-2-methoxy-phenyl)-carbamoyl]amino]-N-[1-(2,6-dimethyl-pyridin-4-yl)-piperidin-4-yl]-N-methyl-2,3-dihydro-1H-indene-5-carboxylic acid amide] | 72% |
| Cc1cc(N2CCC(N(C)C(=O)c3ccc4c(c3)C(NC(=O)N(C)c3ccccc3Cl)CC4)CC2)cc(C)n1 (stereo not drawn) [CC_H-316, 3-[[(2-Chlorophenyl)-methyl-carbamoyl]amino]-N-[1-(2,6-dimethyl-pyridin-4-yl)-piperidin-4-yl]-N-methyl-2,3-dihydro-1H-indene-5-carboxylic acid amide] | 106% |
| Cc1cc(N2CCC(N(C)C(=O)c3ccc4c(c3)C(NC(=O)N(C)c3ccc(Cl)cc3Cl)CC4)CC2)cc(C)n1 (stereo not drawn) [CC_H-317, 3-[[(2,4-Dichlorophenyl)-methyl-carbamoyl]amino]-N-[1-(2,6-dimethyl-pyridin-4-yl)-piperidin-4-yl]-N-methyl-2,3-dihydro-1H-indene-5-carboxylic acid amide] | 110% |
| Cc1cc(N2CCC(N(C)C(=O)c3ccc4c(c3)C(NC(=O)CC(C)C)CC4)CC2)cc(C)n1 (stereo not drawn) [CC_H-318, N-[1-(2,6-Dimethyl-pyridin-4-yl)-piperidin-4-yl]-N-methyl-3-(3-methyl-butanoylamino)-2,3-dihydro-1H-indene-5-carboxylic acid amide] | 111% |
| CCCC(=O)NC1CCc2ccc(C(=O)N(C)C3CCN(c4cc(C)nc(C)c4)CC3)cc21 (stereo not drawn) [CC_H-319, 3-(Butanoylamino)-N-[1-(2,6-dimethyl-pyridin-4-yl)-piperidin-4-yl]-N-methyl-2,3-dihydro-1H-indene-5-carboxylic acid amide] | 106% |
| Cc1cc(N2CCC(N(C)C(=O)c3ccc4c(c3)C(NC(=O)CCC3CCCC3)CC4)CC2)cc(C)n1 (stereo not drawn) [CC_H-320, 3-(3-Cyclopentyl-propanoylamino)-N-[1-(2,6-dimethyl-pyridin-4-yl)-piperidin-4-yl]-N-methyl-2,3-dihydro-1H-indene-5-carboxylic acid amide] | 110% |
| CCS(=O)(=O)NC1CCc2ccc(C(=O)N(C)C3CCN(c4cc(C)nc(C)c4)CC3)cc21 (stereo not drawn) [CC_H-321, N-[1-(2,6-Dimethyl-pyridin-4-yl)-piperidin-4-yl]-3-[(ethylsulfonyl)amino]-N-methyl-2,3-dihydro-1H-indene-5-carboxylic acid amide] | 65% |
| Cc1cc(N2CCC(N(C)C(=O)c3ccc4c(c3)C(NS(=O)(=O)Cc3cccc(C(F)(F)F)c3)CC4)CC2)cc(C)n1 (stereo not drawn) [CC_H-322, N-[1-(2,6-Dimethyl-pyridin-4-yl)-piperidin-4-yl]-N-methyl-3-[[[3-(trifluoromethyl)phenyl]-methylsulfonyl]amino]-2,3-dihydro-1H-indene-5-carboxylic acid amide] | 84% |
| Cc1cc(N2CCC(N(C)C(=O)c3ccc4c(c3)C(NS(=O)(=O)Cc3ccccc3F)CC4)CC2)cc(C)n1 (stereo not drawn) [CC_H-323, N-[1-(2,6-Dimethyl-pyridin-4-yl)-piperidin-4-yl]-3-[[(2-fluorophenyl)-methylsulfonyl]amino]-N-methyl-2,3-dihydro-1H-indene-5-carboxylic acid amide] | 110% |
| Cc1cc(N2CCC(N(C)C(=O)c3ccc4c(c3)C(NS(=O)(=O)CCc3ccccc3Cl)CC4)CC2)cc(C)n1 (stereo not drawn) [CC_H-324, 3-[[2-(2-Chlorophenyl)-ethylsulfonyl]amino]-N-[1-(2,6-dimethyl-pyridin-4-yl)-piperidin-4-yl]-N-methyl-2,3-dihydro-1H-indene-5-carboxylic acid amide] | 108% |
| Cc1cc(N2CCC(N(C)C(=O)c3ccc4c(c3)C(N(C)C(=O)c3cc(F)ccc3Cl)CC4)CC2)cc(C)n1 (stereo not drawn) [CC_H-325, 3-[(2-Chloro-5-fluoro-benzoyl)-methyl-amino]-N-[1-(2,6-dimethyl-pyridin-4-yl)-piperidin-4-yl]-N-methyl-2,3-dihydro-1H-indene-5-carboxylic acid amide] | 112% |
| Cc1cc(N2CCC(N(C)C(=O)c3ccc4c(c3)C(N(C)C(=O)c3cc(C(F)(F)F)ccc3Cl)CC4)CC2)cc(C)n1 (stereo not drawn) [CC_H-326, 3-[[2-Chloro-5-(trifluoromethyl)-benzoyl]-methyl-amino]-N-[1-(2,6-dimethyl-pyridin-4-yl)-piperidin-4-yl]-N-methyl-2,3-dihydro-1H-indene-5-carboxylic acid amide] | 112% |
